Source: patent publication US9381683B2, “Films and methods of manufacture” (priority 2011, dated 2016)

Key:
Water solubility = type: physicochemical
Source text: In vitro testing has shown that due to its poor water solubility, triclosan is released from these films only slowly over […] period, with minimal initial burst release.

[1] = Stability of gentamicin sulfate to manufacturing conditions (heat, organic solvents); type: physicochemical
Source text: In one embodiment, the drug selected must be stable during the manufacturing processes required to fabricate the implant.

| Molecule | water solubility (Water solubility) | thermal stability (thermally stable above) [1] | stability to organic solvents ([1]; organic solvents including DMSO) |
| --- | --- | --- | --- |
| Oc1cc(Cl)ccc1Oc1ccc(Cl)cc1Cl [triclosan, 2,4,4′-trichloro-2′-hydroxydiphenyl ether] | poor | – | – |
| Gentamicin sulfate | – | above 100 °C | stable |
